Data taken from patent US20250367290A1, “ENGINEERED STEM CELLS AND USES THEREOF” (Umoja Biopharma, Inc., priority 2022, published 2025).

Experiments:
RACR-iCILs = test: Proliferation of D47 RACR-iCILs; type: cell-based; details: rapalog 100 nM
Description: RACR-iCILs were generated similar to as described in FIG. 18A and FIG. 18B except without SCF and TPO included in the HP medium as described in Example 9 and FIG. 17A. Data shown are from two BE-RACR iPSC clones. At D40 RACR-iCILs were incubated for one week in a maturation medium containing IL-2, IL-7, IL-12, IL-15, IL-18 and activation beads (anti-CD2/NKp46). RACR-iCILs were then incubated with breast adenocarcinoma MDA-MB23 1 cells expressing a nuclear fluorescent protein at a 10:1 […] ratio in the presence of medium alone, cytokines (IL-2/IL-7/IL-15), or rapalog (100 nM). Cell mixtures were placed into an IncuCyte fluorescent microscope and imaged every 2 hours. The number of MDA-MB23 1 cells was quantified over time via a fluorescent marker and graphed as the ratio of MDA-MB23 1 cells compared to time 0 (time 0 is equal to one). […] RACR-iCILs were then collected, placed in fresh media, and then re-exposed to MDA-MB23 1 cells for a rechallenge (FIG. 19A). Proliferation of D47 RACR-iCILs was also evaluated in different cytokine treatments or rapalog (100 nM).

RACR-CAR+ cells = test: Differentiation of RACR-transduced CLP into CIL cells with or without common gamma chain cytokines; type: cell-based, human
TagCAR-RACR iCIL cells = test: RACR-driven differentiation and expansion of iCIL cells from Day 26 lymphoid progenitors; type: cell-based, human; details: AP21967 100 nM, no other cytokine
From the text: The RACR-system was utilized for differentiation to iPSC-derived CIL cells (iCIL cells). The iPSC cell line ATCC-BXS0117 (ATCC #ACS-1031) was differentiated into lymphoid progenitors through the STEMdiff NK cell kit (STEMCELL® Technologies, #100-0170) as described in Example 2 above, up until the Day 26 timepoint. The percentage of cells containing common lymphoid progenitors (CD45+/CD5+/CD7+), CIL precursors (CD45+/CD5−/CD7+), and early CIL cells (CD45+/CD5−/CD7+/CD56+) is seen in FIG. 3D with ˜50% of the cells presenting as CIL precursors and ˜25% of total cells presenting as early CIL cells. In this study, Day 26 cells were pelleted and placed in a CIL expansion media at 2×10^6 cells/mL containing (IL-2, IL-15, IL-21, IL-18, IL-7 in complete RPMI media: RPMI1640, 10% FBS, 1× Pen-Strep, and 1× Glutamax). […]
At Day 27, the cells were transduced with either VSV-G lentivirus with the payload of Tag (anti-FITC) CAR-P2A-FRB-P2A-RACR at an MOI 10 with 10 µg/mL of protamine sulfate or treated with 10 μg/mL or protamine sulfate alone (Mock). […] An aliquot of cells was collected weekly, counted on the Vicell Blu automated cell counter, and stained for CD16 clone 3G8, CD56 clone HCD56, CD45 clone 2D1, CD5 clone L17F12, CD7 clone CD7-6B7 and anti-FITC CAR (TagCAR) detection through FITC-AF647.

wildtype iPSCs = test: iPSC confluency after four days of rapamycin; type: cell-based, human; details: four days of treatment
Description: (§1) RACR requires rapamycin for activation; however, rapamycin inhibits cell growth. To generate rapamycin resistant cells, the FKBP12 gene was knocked-out. […] In the absence of FKBP12, rapamycin cannot interact with the mTOR complex and thus loses its inhibitory capacity. The efficiency of the knockout was determined by Sanger sequencing. Con1, Con2, or Con3 indicate different electroporation conditions for CRISPR-Cas9 based editing resulting in differing levels of knockout. Phase-contrast images reveal normal iPSC morphology in both wild type and FKBP12 KO cells, FIG. 16B, right panel. The confluency of wildtype iPSCs after four days of treatment with varying doses of rapamycin with inhibition of growth at 1 nM rapamycin or higher is shown in FIG. 16C. […] The ability of clonal FKBP12 KO iPSCs to differentiate to hematopoietic progenitors (HPs) in the presence of rapamycin is shown in FIG. 16E.

iCIL cells = test: iCIL differentiation and expansion in bioreactors; type: cell-based; details: iCIL differentiation phase
Description: At Day 15 of culture, the differentiated cells were continued in culture for up to 40 days for iCIL cell generation. At Day 21, the GRex bioreactor was seeded with the cells, as described in Example 13. […] Lower seeding densities on days 15 and 24 contributed to increased iCIL yields, while higher seeding densities contributed to higher iCIL yields on Days 30-33 (FIG. 39B). In another experiment, this step was repeated with two different stirred-tank bioreactors at various stages in the protocol.
Thus, Aim V was used as the base medium for the iCIL differentiation phase. Components and supplements in the Aim V medium used during the iCIL differentiation phase were tested for their effect on iCIL yield and cytotoxicity.

[1] = system: hematopoietic progenitors (CD34+/CD43+/CD45+); test: HP differentiation phase: rapamycin requirement; type: cell-based
Description: RACR iPSCs (edited B2M-EF1a-RACR and knocked out for FKBP12) were cultured in media, as described in Example 9. At day 0-2, embryoid bodies (EBs) were generated from a single cell suspension of iPSCs in STEMdiff APEL 2 Medium (STEMCELL Technologies) supplemented with BMP4, FGF2, VEGF, Y27632, and +/− rapalog (RL; AP21967) or +/− rapamycin (RM). EBs were formed using plates comprising aggregates of microwells (e.g. Aggrewell™ 800 plates) at 500 iPSC/EB or 1000 iPSC/EB, as described in Example 9 and shown in FIG. 34. As shown in FIG. 35A-B, higher iPSC confluency at the start of differentiation contributes to a higher HP yield. Further, a range of 200-250 iPSC/EBs seeded in microwells is optimal to achieve the highest HP yield on day 15 (FIG. 35C).
The differentiating EBs were moved to non-tissue culture treated 6-well plates (Corning) at day 6 and fresh HP Medium was added. Every 3 days from days 3-15, half of the media was replaced with HP Medium.

FKBP12 KO iPSCs = test: iPSC confluency during four days of rapamycin; type: cell-based, human; details: four days of treatment
Description: as §1

[2] = system: PSMA-positive human prostate cancer cells; details: DUPA-(99m) Tc; cited from earlier work
[3] = system: non-Hodgkin's lymphoma tumor cells; test: RACR-iCIL co-culture cytotoxicity with or without rituximab; type: cell-based; details: added to RACR-iCILs
Description: (§2) In a similar experiment, RACR-iCILs were cocultured with Burkitt's lymphoma tumor cells or non-Hodgkin's lymphoma tumor cells at a ratio of 2.5:1, 10:1, or 0:1, and stimulated with and without rapamycin and/or cytokines. Additional groups included rituximab. Cytotoxicity was determined by imaging cells across 40 hours, as described in Example 6.

[4] = system: Burkitt's lymphoma tumor cells; test: as above; type: cell-based; details: added to RACR-iCILs
Description: as §2

CO[C@@H]1C[C@H](C[C@H](C)C2CC(=O)[C@@H](C)/C=C(\C)[C@@H](O)[C@@H](OC)C(=O)[C@H](C)C[C@@H](C)/C=C/C=C/C=C(\C)[C@H](c3c[nH]c4c(C)cccc34)C[C@H]3CC[C@@H](C)[C@@](O)(O3)C(=O)C(=O)N3CCCC[C@H]3C(=O)O2)CC[C@@H]1O (some centres unmarked) [AP21967]
total RACR-iCILs one week after stimulation (RACR-iCILs): supported RACR-iCIL growth | percent of RACR-CAR+CD56+ cells (RACR-CAR+ cells; 4 nM AP21967, all media conditions, Day 40): increase in the percent of RACR-CAR+CD56+ cells | fold change in RACR-CAR+ cells (RACR-CAR+ cells; UM729 alone (None) media plus rapalog): largest fold change in RACR-CAR+ cells | iCIL expansion and differentiation (TagCAR-RACR iCIL cells): sufficient to drive iCIL expansion in the absence of any other cytokine signaling

CO[C@H]1C[C@@H]2CC[C@@H](C)[C@@](O)(O2)C(=O)C(=O)N2CCCC[C@H]2C(=O)O[C@H]([C@H](C)C[C@@H]2CC[C@@H](O)[C@H](OC)C2)CC(=O)[C@H](C)/C=C(\C)[C@@H](O)[C@@H](OC)C(=O)[C@H](C)C[C@H](C)/C=C/C=C/C=C/1C [rapamycin]
rapamycin dose with inhibition of growth (confluency) (wildtype iPSCs): ≥ 1 nM | lowest rapamycin concentration sufficient to expand iCIL cells (iCIL cells): 6.2 nM | lowest rapamycin concentration sufficient to produce comparable HP yields [1]: 3.1 nM | rapamycin doses with robust growth (confluency) (FKBP12 KO iPSCs): up to 100 nM

O=C(O)CC[C@H](NC(=O)N[C@@H](CCC(=O)O)C(=O)O)C(=O)O [DUPA]
Kd [2]: 14 nM

rituximab: antibody added to RACR-iCIL co-cultures with lymphoma tumor cells
further increase of tumor killing [3]: 10% | further increase of tumor killing [4]: 10%
